Test results published in patent US20210346331A1, “TRPV4 ACTIVITY INHIBITOR” (KAO CORPORATION, priority 2018, published 2021).

Target: T1, human TRPV4 (Homo sapiens, UniProt Q9HBA0)
T1 construct: expressed in transfected cells; host or cells: HeLa cells, transient transfection with pcDNA3.1 Directional TOPO vector
Assay: Measurement of intracellular calcium ion influx activity in human TRPV4 expressing cells (HeLa, Fluo4) stimulated with TRPV4 agonist GSK1016790a
Format: cell-based
Details: for Intracellular Ca^2+ influx rate (%): GSK + solvent = 100%, human TRPV4 expressing HeLa cells, n = 3, Mean ± S.E.; for calcium ion influx caused by the TRPV4 agonist (result in words): summary of Table 1, Dunnett's test vs GSK1016790a + solvent
Procedure: Polymerase chain reaction (PCR) was performed under the following conditions using a primer set comprising the oligonucleotides represented by the following base sequences which were synthesized with reference to published human TRPV4 gene sequences using a cDNA obtained by reverse-transcribing a totalRNA extracted from the Hutu-80 cell, as a template.
The obtained PCR product was purified using the High Pure PCR Product Purification Kit. The human TRPV4 gene expression vector was produced using the purified PCR product and the pcDNA3.1 Directional TOPO Expression Kit.
The HeLa cell was cultured using the DMEM/F12 medium containing 10% of fetal bovine serum. The HeLa cell was seeded in a T-75 cell culture flask at 5×10^5 cells/Flask. After three days of culture, the human TRPV4 gene expression vector (8 μg) produced in the above (2) was transfected into the cell using the TransIT-HeLaMONSTER Transfection Kit and cultured for 1 day.
The cell was detached using the Detachin and seeded at a density of 1.5×10^4 cells/90 μL/well in the DMEM/F12 medium containing 10% of fetal bovine serum on the 96 well Optical bottom plate and cultured for further 1 day.
Measurement of the intracellular calcium ion influx activity was performed using the Calcium Kit II—fluo 4. After the Loading buffer containing the Fluo4-AM and the Hanks' balanced salt solution were mixed at a ratio of 1:1, 180 μL/well of the mixture was added to the human TRPV4 expressing cell produced in the above (3) and incubated at 37° C. for 1 hour. Thereafter, fluorescence intensity (excitation wavelength: 488 nm, fluorescence wavelength: 524 nm) was measured using a fluorescent plate reader FDSS3000 (Hamamatsu Photonics K.K.) at 37° C. every 2 seconds. The GSK1016790a which is the TRPV4 agonist and each of the 4,3′-di-O-methyl-rosmarinic acid, 3′,4′-di-O-methyl-rosmarinic acid, 4,4′-di-O-methyl-rosmarinic acid, and 3,4-di-O-methyl-rosmarinic acid solution prepared in Production Examples as samples were diluted with the Hanks' balanced salt solution, 20 μL/well of the mixed solution thereof (they were mixed just before the addition) was added to the cell after 30 seconds after the start of the measurement, and the change of the fluorescence intensity was measured every 2 seconds until 300 seconds. The GSK1016790a was added so as to have a final concentration of 3 nM.
As a positive control of the TRPV4 activity inhibition, HC067047, which is the TRPV4 antagonist, was added to the cell in a final concentration of 10 μM.
The TRPV4 activity of the samples was calculated by the following equation, assuming that the influx rate of calcium ions by the treatment of the GSK1016790a, which is the TRPV4 agonist, is 100%.
Influx rate of calcium ions (%)=[(Fmax/F0)−(FmaxC2/F0C2)]/[(FmaxC1/FOC1)−(FmaxC2/F0C2)]×100 (Expression 1)
Fmax: The maximum fluorescence intensity of the well to which the GSK1016790a and a sample were added, at from 0 to 300 seconds after the start of the measurement
FmaxC1: The maximum fluorescence intensity of the well to which the GSK1016790a and a solvent were added, at from 0 to 300 seconds after the start of the measurement
FmaxC2: The maximum fluorescence intensity of the well to which only a solvent was added, at from 0 to 300 seconds after the start of the measurement
F0: The fluorescence intensity of the same well as Fmax, immediately after the start of the measurement
F0C1: The fluorescence intensity of the same well as FmaxC1, immediately after the start of the measurement
F0C2: The fluorescence intensity of the well to which only a solvent was added, immediately after the start of the measurement
The influx rates of calcium ions (n=3 for each group) in the case of adding samples were tested using the Dunnett's test by comparing with the case of adding the GSK1016790a+a solvent. […] The results were presented as the average value (Mean)±standard error (S.E.).

[1] = sample 30 μM + GSK1016790a 3 nM
[2] = sample 100 μM + GSK1016790a 3 nM

T1 sequence (Q9HBA0 whole entry): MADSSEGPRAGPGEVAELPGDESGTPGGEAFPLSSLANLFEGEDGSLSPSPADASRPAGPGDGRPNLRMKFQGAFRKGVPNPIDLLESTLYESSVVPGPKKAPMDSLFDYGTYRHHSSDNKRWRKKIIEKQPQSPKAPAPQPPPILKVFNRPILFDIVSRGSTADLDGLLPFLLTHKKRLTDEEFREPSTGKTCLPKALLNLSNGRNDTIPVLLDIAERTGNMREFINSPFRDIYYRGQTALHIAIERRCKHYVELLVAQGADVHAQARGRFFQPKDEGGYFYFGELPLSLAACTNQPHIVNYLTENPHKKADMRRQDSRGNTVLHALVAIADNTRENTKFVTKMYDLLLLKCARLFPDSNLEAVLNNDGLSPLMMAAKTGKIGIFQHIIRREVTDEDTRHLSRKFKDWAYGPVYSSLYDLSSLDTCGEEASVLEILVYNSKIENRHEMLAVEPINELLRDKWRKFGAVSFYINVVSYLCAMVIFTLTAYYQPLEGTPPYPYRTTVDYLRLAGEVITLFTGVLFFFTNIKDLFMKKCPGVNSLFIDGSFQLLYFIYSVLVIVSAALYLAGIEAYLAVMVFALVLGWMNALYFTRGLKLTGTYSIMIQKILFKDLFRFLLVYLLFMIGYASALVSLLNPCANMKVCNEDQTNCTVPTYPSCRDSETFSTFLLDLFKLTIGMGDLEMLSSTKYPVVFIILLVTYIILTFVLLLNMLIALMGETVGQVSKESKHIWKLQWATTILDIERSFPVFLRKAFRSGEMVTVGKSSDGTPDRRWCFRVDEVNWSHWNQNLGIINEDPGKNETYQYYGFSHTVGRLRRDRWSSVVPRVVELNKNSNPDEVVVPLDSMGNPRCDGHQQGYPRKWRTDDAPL

| Intracellular Ca^2+ influx rate (%) [1] | Intracellular Ca^2+ influx rate (%) [2] | Compound | calcium ion influx caused by the TRPV4 agonist (result in words) | Intracellular Ca^2+ influx rate (%) (sample 10 μM + GSK1016790a 3 nM) |
| --- | --- | --- | --- | --- |
| 78.81 ± 3.67 (P < 0.01) % | 81.74 ± 1.18 (P < 0.01) % | COc1ccc(/C=C/C(=O)OC(Cc2ccc(O)c(O)c2)C(=O)O)cc1OC (stereo not shown) [3′,4′-DiMe-RA, (E)-3-(3,4-dihydroxyphenyl)-2-{[3-(3,4-dimethoxyphenyl)acryloyl]oxy}propionic acid] | significantly reduced the calcium ion influx |  |
| 85.31 ± 8.14 (P < 0.05) % | 81.02 ± 1.18 (P < 0.01) % | COc1ccc(CC(OC(=O)/C=C/c2ccc(O)c(OC)c2)C(=O)O)cc1O (stereo not shown) [4,3′-DiMe-RA, (E)-3-(3-hydroxy-4-methoxyphenyl)-2-{[3-(4-hydroxy-3-methoxyphenyl)acryloyl]oxy}propionic acid] | significantly reduced the calcium ion influx |  |
| 83.19 ± 4.69 (P < 0.05) % | 75.87 ± 3.39 (P < 0.001) % | COc1ccc(/C=C/C(=O)OC(Cc2ccc(OC)c(O)c2)C(=O)O)cc1O (stereo not shown) [4,4′-DiMe-RA, (E)-3-(3-hydroxy-4-methoxyphenyl)-2-{[3-(3-hydroxy-4-methoxyphenyl)acryloyl]oxy}propionic acid] | significantly reduced the calcium ion influx |  |

Second part, the molecule before the results:

| Compound | Intracellular Ca^2+ influx rate (%) [1] | Intracellular Ca^2+ influx rate (%) [2] | calcium ion influx caused by the TRPV4 agonist (result in words) | Intracellular Ca^2+ influx rate (%) (sample 10 μM + GSK1016790a 3 nM) |
| --- | --- | --- | --- | --- |
| COc1ccc(CC(OC(=O)/C=C/c2ccc(O)c(O)c2)C(=O)O)cc1OC (stereo not shown) [3,4-DiMe-RA, (E)-3-(3,4-dimethoxyphenyl)-2-{[3-(3,4-dihydroxyphenyl)acryloyl]oxy}propionic acid] | 80.66 ± 1.58 (P < 0.01) % | 78.99 ± 3.27 (P < 0.01) % | significantly reduced the calcium ion influx |  |
| Cc1c(C(=O)Nc2cccc(C(F)(F)F)c2)cc(-c2ccccc2)n1CCCN1CCOCC1 [HC067047, reference compound] |  |  |  | 0.63 ± 0.14 (P < 0.001) % |
